Laboratory results from US20070117770A1, “Human ribosomal DNA (rDNA) and ribosomal RNA (rRNA) nucleic acids and uses thereof” (Cylene Pharmaceuticals, Inc., priority 2005, published 2007).

Tests used:
Experiment in all cases: Protein kinase inhibition assay
Assay type in all cases: biochemical
Tie2(h) = Tie2(h) (Homo sapiens, UniProt Q02763); conditions: for remaining activity at 2.5 µM: read-out: percent residual activity of Tie2(h)
Experimental: (§1) Certain compounds were tested for activity in protein kinase inhibition assays. All substrates were dissolved and diluted to working stocks in de-ionized water, apart from histone H1 (10× working stock in 20 mM MOPS pH 7.0), PDKtide (10× working stock in 50 mM Tris pH 7.0) ATF2 (which is typically stored at a 20× working stock in 50 mM Tris pH 7.5, 150 mM NaCl, 0.1 mM EGTA, 0.03% Brij-35, 50% glycerol, 1 mM benzamidine, 0.2 mM PMSF and 0.1% R-mercaptoethanol), KKLNRTLSFAEPG (SEQ ID NO:203) and RRRLSFAEPG (SEQ ID NO:204) (50 mM HEPES pH 7.4) and GGEEEEYFELVKKKK (SEQ ID NO:205) (20 mM MOPS pH 7.0). All kinases were pre-diluted to a 10× working concentration prior to addition into the assay. The composition of the dilution buffer for each kinase is detailed below.
(§2) In a final reaction volume of 25 μl, Tie2 (h) (5-10 mU) is incubated with 8 mM MOPS pH 7.0, 0.2 mM EDTA, 0.5 mM MnCl2, 0.1 mg/ml poly(Glu, Tyr) 4:1, 10 mM MgAcetate and [gamma-33P-ATP] (specific activity approx. 500 cpm/pmol, concentration as required). The reaction is initiated by the addition of the MgATP mix. After incubation for 40 minutes at room temperature, the reaction is stopped by the addition of 5 μl of a 3% phosphoric acid solution. 10 μl of the reaction is then spotted onto a Filtermat A and washed three times for 5 minutes in 75 mM phosphoric acid and once in methanol prior to drying and scintillation counting.

IR(h) = IR(h) (Homo sapiens, UniProt P06213); conditions: read-out: percent residual activity of IR(h)
IR(h), sequence (P06213 28-1382): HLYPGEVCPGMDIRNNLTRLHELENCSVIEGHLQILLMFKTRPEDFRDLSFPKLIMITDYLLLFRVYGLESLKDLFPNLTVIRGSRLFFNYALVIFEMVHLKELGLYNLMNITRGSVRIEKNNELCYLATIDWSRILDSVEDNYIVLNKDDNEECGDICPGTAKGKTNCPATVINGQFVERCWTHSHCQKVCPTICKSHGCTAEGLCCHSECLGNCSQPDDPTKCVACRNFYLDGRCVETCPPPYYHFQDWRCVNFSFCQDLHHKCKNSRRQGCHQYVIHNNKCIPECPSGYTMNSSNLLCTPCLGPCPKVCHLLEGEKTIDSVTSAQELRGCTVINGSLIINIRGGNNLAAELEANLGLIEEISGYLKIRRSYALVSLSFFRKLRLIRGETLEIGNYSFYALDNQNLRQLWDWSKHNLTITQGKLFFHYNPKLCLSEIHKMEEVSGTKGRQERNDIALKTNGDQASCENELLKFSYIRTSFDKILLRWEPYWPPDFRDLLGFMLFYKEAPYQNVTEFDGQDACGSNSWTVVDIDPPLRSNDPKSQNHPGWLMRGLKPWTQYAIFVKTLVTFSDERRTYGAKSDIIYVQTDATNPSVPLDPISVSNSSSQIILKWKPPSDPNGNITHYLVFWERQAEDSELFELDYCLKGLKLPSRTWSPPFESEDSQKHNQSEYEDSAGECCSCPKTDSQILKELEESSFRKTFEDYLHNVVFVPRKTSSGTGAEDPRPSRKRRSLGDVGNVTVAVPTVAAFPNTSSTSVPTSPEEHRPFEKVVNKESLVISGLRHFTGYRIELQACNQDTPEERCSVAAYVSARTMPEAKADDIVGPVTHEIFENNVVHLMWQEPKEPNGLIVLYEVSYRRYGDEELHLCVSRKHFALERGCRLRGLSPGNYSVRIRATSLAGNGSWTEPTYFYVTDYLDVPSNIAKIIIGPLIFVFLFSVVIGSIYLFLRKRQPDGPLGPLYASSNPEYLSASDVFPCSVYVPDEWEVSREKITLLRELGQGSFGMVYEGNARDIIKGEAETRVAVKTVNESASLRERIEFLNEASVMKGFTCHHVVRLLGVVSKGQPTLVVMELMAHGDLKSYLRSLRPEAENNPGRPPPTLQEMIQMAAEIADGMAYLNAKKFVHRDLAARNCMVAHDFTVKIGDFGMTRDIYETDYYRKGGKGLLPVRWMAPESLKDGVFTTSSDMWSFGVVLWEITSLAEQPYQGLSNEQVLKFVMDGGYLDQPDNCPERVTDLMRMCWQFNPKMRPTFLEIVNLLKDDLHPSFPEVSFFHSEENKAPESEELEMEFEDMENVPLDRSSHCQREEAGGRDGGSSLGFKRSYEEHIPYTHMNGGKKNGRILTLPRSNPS
Experimental: as §1
In a final reaction volume of 25 μl, IR (h) (5-10 mU) is incubated with 50 mM Tris pH 7.5, 0.1 mM EGTA, 0.1 mM Na3VO4, 0.1% R-mercaptoethanol, 250 μM KKSRGDYMTMQIG (SEQ ID NO:210), 10 mM MnCl2, 10 mM MgAcetate and [gamma-33P-ATP] (specific activity approx. 500 cpm/pmol, concentration as required). The reaction is initiated by the addition of the MgATP mix. After incubation for 40 minutes at room temperature, the reaction is stopped by the addition of 5 μl of a 3% phosphoric acid solution. […]

Rsk1(h) = Rsk1(h) (Homo sapiens, UniProt Q15418); conditions: read-out: percent residual activity of Rsk1(h)
Rsk1(h), sequence (Q15418 whole entry): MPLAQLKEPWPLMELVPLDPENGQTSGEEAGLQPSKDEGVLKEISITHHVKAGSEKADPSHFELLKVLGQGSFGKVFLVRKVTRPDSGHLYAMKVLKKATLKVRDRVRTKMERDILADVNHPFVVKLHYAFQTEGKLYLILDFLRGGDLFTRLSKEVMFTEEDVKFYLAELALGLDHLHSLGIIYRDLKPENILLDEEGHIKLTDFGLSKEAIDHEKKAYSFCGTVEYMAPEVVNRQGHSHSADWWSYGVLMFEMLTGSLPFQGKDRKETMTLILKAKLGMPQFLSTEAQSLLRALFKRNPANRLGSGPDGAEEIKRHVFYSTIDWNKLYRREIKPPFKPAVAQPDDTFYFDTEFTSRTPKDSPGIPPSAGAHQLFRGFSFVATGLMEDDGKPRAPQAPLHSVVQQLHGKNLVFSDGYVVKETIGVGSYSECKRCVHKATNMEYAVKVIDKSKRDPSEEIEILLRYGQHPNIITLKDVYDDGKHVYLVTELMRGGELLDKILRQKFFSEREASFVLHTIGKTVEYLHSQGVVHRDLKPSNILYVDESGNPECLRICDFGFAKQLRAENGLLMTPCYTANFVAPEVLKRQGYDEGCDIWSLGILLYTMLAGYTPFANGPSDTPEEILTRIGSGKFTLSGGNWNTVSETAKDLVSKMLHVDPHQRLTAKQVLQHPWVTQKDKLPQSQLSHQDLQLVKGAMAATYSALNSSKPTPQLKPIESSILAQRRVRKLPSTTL
Experimental: as §1
as §2, with “Rsk1” for “Tie2”, “30 μM KKKNRTLSVA (SEQ ID NO:212),” for “0.5 mM MnCl2, 0.1 mg/ml poly(Glu, Tyr) 4:1,”, “P30 filtermat” for “Filtermat A”

MEK1(h) = MEK1(h) (Homo sapiens, UniProt Q02750); conditions: read-out: percent residual activity of MEK1(h)
MEK1(h), sequence (Q02750 whole entry): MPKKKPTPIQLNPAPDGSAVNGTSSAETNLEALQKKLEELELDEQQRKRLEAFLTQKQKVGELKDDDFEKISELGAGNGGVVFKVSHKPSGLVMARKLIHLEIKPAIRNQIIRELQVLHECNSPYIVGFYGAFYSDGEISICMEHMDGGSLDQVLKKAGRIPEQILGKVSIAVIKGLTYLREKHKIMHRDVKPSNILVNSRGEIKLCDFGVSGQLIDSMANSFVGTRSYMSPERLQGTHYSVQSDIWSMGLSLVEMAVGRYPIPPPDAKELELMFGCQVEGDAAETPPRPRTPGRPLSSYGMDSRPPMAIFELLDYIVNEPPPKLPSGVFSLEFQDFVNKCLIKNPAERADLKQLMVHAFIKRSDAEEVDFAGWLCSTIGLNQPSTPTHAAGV
Experimental: as §1
The reaction is initiated by the addition of the MgATP. After incubation for 40 minutes at room temperature, 5 μl of this incubation mix is used to initiate a MAPK2 (m) assay, which is described on page 12 of this book.

MST1(h) = MST1(h) (Homo sapiens, UniProt Q13043); conditions: read-out: percent residual activity of MST1(h)
MST1(h), sequence (Q13043 whole entry): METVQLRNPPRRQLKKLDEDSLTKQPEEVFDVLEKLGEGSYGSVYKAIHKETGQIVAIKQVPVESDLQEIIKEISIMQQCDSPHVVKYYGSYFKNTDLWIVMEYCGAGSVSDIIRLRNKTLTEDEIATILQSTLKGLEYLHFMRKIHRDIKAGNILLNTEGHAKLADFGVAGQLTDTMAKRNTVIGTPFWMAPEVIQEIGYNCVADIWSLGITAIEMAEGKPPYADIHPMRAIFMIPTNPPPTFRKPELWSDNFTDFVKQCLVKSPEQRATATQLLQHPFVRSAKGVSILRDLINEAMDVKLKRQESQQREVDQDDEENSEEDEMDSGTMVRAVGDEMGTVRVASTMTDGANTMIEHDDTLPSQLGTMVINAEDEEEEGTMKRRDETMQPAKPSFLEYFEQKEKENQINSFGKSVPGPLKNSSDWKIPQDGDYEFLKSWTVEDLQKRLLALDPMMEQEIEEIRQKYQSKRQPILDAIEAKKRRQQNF
Experimental: as §1
as §2, with “MST1” for “Tie2”, “250 μM KKSRGDYMTMQIG (SEQ ID NO:210),” for “0.5 mM MnCl2, 0.1 mg/ml poly(Glu, Tyr) 4:1,”, “P30 filtermat” for “Filtermat A”

FGFR3(h) = FGFR3(h) (Homo sapiens, UniProt P22607); conditions: read-out: percent residual activity of FGFR3(h)
FGFR3(h), sequence (P22607 23-806): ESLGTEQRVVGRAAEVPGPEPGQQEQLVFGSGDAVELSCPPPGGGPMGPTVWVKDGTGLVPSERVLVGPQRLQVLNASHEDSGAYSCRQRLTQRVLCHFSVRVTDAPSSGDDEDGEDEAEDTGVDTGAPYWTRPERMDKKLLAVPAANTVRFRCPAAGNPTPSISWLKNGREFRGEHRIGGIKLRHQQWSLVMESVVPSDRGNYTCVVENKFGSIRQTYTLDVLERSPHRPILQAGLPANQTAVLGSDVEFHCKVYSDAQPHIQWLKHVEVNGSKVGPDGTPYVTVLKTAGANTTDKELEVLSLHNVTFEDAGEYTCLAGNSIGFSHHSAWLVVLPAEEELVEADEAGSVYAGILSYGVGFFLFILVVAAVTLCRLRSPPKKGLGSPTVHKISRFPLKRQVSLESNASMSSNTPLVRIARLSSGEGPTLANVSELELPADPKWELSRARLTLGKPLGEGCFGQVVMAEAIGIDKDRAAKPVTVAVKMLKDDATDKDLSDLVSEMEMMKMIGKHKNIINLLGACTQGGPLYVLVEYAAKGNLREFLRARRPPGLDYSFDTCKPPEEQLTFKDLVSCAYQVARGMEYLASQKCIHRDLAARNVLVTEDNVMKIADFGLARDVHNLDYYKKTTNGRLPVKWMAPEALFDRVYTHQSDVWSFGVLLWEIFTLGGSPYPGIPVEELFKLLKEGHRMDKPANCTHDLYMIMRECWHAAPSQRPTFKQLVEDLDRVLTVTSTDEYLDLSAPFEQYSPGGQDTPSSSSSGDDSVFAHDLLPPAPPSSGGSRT
Experimental: as §1
In a final reaction volume of 25 μl, FGFR3 (h) (5-10 mU) is incubated with 8 mM MOPS pH 7.0, 0.2 mM EDTA, 0.1 mg/ml poly(Glu, Tyr) 4:1, 10 mM MnCl2, 10 mM MgAcetate and [y-33P-ATP] (specific activity approx. 500 cpm/pmol, concentration as required). The reaction is initiated by the addition of the MgATP mix. After incubation for 40 minutes at room temperature, the reaction is stopped by the addition of 5 μl of a 3% phosphoric acid solution. 10 μl of the reaction is then spotted onto a Filtermat A and washed three times for 5 minutes in 75 mM phosphoric acid and once in methanol prior to drying and scintillation counting.

NEK2(h) = NEK2(h) (Homo sapiens, UniProt P51955); conditions: read-out: percent residual activity of NEK2(h)
Experimental: as §1
as §2, with “NEK2” for “Tie2”, “0.33” for “0.5 mM MnCl2, 0.1”, “myelin basic protein,” for “poly(Glu, Tyr) 4:1,”, “P30 filtermat” for “Filtermat A”

Tie2(h), sequence (Q02763 23-1124): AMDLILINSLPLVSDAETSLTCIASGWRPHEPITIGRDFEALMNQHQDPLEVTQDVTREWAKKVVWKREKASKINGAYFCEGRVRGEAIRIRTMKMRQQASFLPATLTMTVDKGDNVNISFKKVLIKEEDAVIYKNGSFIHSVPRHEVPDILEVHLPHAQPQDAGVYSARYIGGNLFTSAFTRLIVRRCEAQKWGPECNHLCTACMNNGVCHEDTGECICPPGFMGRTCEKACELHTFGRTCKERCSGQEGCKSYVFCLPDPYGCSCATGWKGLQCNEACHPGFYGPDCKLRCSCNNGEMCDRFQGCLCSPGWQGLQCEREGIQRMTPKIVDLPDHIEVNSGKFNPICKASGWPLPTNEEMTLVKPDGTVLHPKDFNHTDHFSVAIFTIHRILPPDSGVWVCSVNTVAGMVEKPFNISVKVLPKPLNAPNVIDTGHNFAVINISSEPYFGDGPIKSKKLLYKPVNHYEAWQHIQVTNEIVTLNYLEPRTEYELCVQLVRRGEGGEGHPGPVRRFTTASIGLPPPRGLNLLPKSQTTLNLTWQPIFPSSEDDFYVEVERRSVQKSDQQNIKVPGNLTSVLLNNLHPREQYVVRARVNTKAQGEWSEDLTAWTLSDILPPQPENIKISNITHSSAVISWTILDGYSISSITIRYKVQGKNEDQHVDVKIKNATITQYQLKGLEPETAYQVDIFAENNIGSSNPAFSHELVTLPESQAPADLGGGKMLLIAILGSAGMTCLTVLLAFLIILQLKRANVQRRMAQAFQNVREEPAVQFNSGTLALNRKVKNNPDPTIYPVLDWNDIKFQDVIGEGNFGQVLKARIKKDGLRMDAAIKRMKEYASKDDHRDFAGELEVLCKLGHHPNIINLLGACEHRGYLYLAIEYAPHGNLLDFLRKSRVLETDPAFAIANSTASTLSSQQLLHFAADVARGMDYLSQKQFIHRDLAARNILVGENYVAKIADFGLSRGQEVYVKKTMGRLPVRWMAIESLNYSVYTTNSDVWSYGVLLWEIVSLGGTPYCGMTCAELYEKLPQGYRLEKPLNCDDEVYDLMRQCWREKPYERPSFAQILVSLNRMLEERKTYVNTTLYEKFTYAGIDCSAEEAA

SMILES | inhibition at 2.5 µM (Tie2(h)) | remaining activity at 2.5 µM (Tie2(h)) | remaining activity at 2.5 µM (IR(h)) | remaining activity at 2.5 µM (Rsk1(h)) | remaining activity at 2.5 µM (MEK1(h)) | remaining activity at 2.5 µM (MST1(h)) | remaining activity at 2.5 µM (FGFR3(h)) | remaining activity at 2.5 µM (NEK2(h))
CN1CCCC1CCNC(=O)c1cn2c3c(c(N4CCC(c5cnccn5)C4)c(F)cc3c1=O)Oc1cc3ccccc3cc1-2 (stereo not drawn) [Compound A-1] | > 80% | 13% | 96% | 85% | 87% | 76% | 101% | 65%
CC(=O)N1CCN(c2ccc3c(=O)c(C(=O)NCCN4CCCC4)c4n(C)c5ccccc5n4c3n2)CC1 [Compound B-1] |  | 115% | 110% | 103% | 90% | 96% | 116% | 106%
